Results: US5310762A, “Medicaments” (Burroughs Wellcome Co., priority 1988, dated 1994)

What was measured:
Pneumocystis carinii = assay: Activity against Pneumocystis carinii: treatment of latent infection in dexamethasone-treated rats; format: in vivo; conditions: weeks 5-7; for SCORE 2 (number of rats): 2+: focal areas of pneumonitis surrounded by 10 to 25 h.p.f. of normal lung; for SCORE 3 (number of rats): 3+: lung diffusely and extensively involved; for SCORE 4 (number of rats): score 4 not defined; for SCORE 0 (number of rats): score none: no organism seen; for SCORE 1 (number of rats): 1+: cysts sparsely distributed, less than one per 25 h.p.f.
Method: Groups of 10 rats were treated with dexamethasone to allow latent Pneumocystis carinii infection to develop. Tetracycline was also administered to protect against bacterial infections. […] In parallel with each test compound, Celacol was administered to one group of rats (also treated with dexamethasone and tetracycline) as a control. At the end of the test period the animals were sacrificed and autopsies carried out. The lungs were removed and the right lung bisected. An imprint was made onto microscope slides and stained with toluidine blue. One half of the lung was placed in formalin, processed in paraffin blocks, sectioned and stained by the Gomori methanamine silver nitrate method. After autopsy the extent of P. carinii pneumonitis was scored under coded study as none if no organism seen; 1+ if P. carinii cysts seen sparsely distributed with less than one per 25 high power field (h.p.f.); 2+ if focal areas of P. carinii pneumonitis surrounded by 10 to 25 h.p.f. of normal lung and 3+ if lung diffusely and extensively involved with organisms in almost all h.p.f.s.

[1] = tested on: Pneumocystis carinii pneumonia; conditions: AIDS patients; Wofsy, Antimicrobial Agents Annual 1986; cited from earlier work
[2] = human, in vivo; cited from earlier work
Water-solubility = format: physicochemical; conditions: as compared with the corresponding compound wherein R13 is hydroxy

Q: Which results are given for `CC(C)(C)C1CCC(C2=C(O)C(=O)c3ccccc3C2=O)CC1` (stereo not shown) [Compound B, 2-(4-t-butylcyclohexyl)-3-hydroxy-1,4-naphthoquinone]?
A: % INFECTED (Pneumocystis carinii; 25 mg/kg/day oral): 100%; NO. INFECTED/NO. EXAMINED (Pneumocystis carinii; 25 mg/kg/day oral): 15/15; SCORE 2 (number of rats) (Pneumocystis carinii; 25 mg/kg/day oral): 7; SCORE 3 (number of rats) (Pneumocystis carinii; 25 mg/kg/day oral): 1; SCORE 4 (number of rats) (Pneumocystis carinii; 25 mg/kg/day oral): 0; SCORE 0 (number of rats) (Pneumocystis carinii; 25 mg/kg/day oral): 0; % INFECTED (Pneumocystis carinii; 50 mg/kg/day oral): 93%; NO. INFECTED/NO. EXAMINED (Pneumocystis carinii; 50 mg/kg/day oral): 13/14; SCORE 1 (number of rats) (Pneumocystis carinii; 50 mg/kg/day oral): 8; SCORE 2 (number of rats) (Pneumocystis carinii; 50 mg/kg/day oral): 4; SCORE 3 (number of rats) (Pneumocystis carinii; 50 mg/kg/day oral): 1; SCORE 4 (number of rats) (Pneumocystis carinii; 50 mg/kg/day oral): 0; SCORE 0 (number of rats) (Pneumocystis carinii; 50 mg/kg/day oral): 1; % INFECTED (Pneumocystis carinii; 100 mg/kg/day oral): 80%; NO. INFECTED/NO. EXAMINED (Pneumocystis carinii; 100 mg/kg/day oral): 12/15; SCORE 1 (number of rats) (Pneumocystis carinii; 100 mg/kg/day oral): 8; SCORE 2 (number of rats) (Pneumocystis carinii; 100 mg/kg/day oral): 3; SCORE 3 (number of rats) (Pneumocystis carinii; 100 mg/kg/day oral): 0; SCORE 4 (number of rats) (Pneumocystis carinii; 100 mg/kg/day oral): 1; SCORE 0 (number of rats) (Pneumocystis carinii; 100 mg/kg/day oral): 3; SCORE 1 (number of rats) (Pneumocystis carinii; oral): 7

Q: For `O=C1C(Cl)=C(C2CCC(c3ccc(Cl)cc3)CC2)C(=O)c2ccccc21` (stereo not shown) [A, 2-[4-(4-chlorophenyl)cyclohexyl]-3-chloro-1,4-naphthoquinone], which “% INFECTED” value (Pneumocystis carinii; 25 mg/kg/day oral) is on record?
A: 100%

Q: What about the “NO. INFECTED/NO. EXAMINED” value (Pneumocystis carinii; 25 mg/kg/day oral) of the same compound?
A: 14/14

Q: What about the “SCORE 2 (number of rats)” value (Pneumocystis carinii; 25 mg/kg/day oral) of the same compound?
A: 6

Q: What about the “SCORE 3 (number of rats)” value (Pneumocystis carinii; 25 mg/kg/day oral) of the same compound?
A: 3

Q: What about the “SCORE 4 (number of rats)” value (Pneumocystis carinii; 25 mg/kg/day oral) of the same compound?
A: 0

Q: What about the “SCORE 0 (number of rats)” value (Pneumocystis carinii; 25 mg/kg/day oral) of the same compound?
A: 0

Q: What about the “% INFECTED” value (Pneumocystis carinii; 50 mg/kg/day oral) of the same compound?
A: 100%

Q: And the “NO. INFECTED/NO. EXAMINED” value (Pneumocystis carinii; 50 mg/kg/day oral)?
A: 15/15

Q: And the “SCORE 1 (number of rats)” value (Pneumocystis carinii; 50 mg/kg/day oral)?
A: 8

Q: And the “SCORE 2 (number of rats)” value (Pneumocystis carinii; 50 mg/kg/day oral)?
A: 5

Q: And the “SCORE 3 (number of rats)” value (Pneumocystis carinii; 50 mg/kg/day oral)?
A: 2

Q: What about the “SCORE 4 (number of rats)” value (Pneumocystis carinii; 50 mg/kg/day oral) of the same compound?
A: 0

Q: What about the “SCORE 0 (number of rats)” value (Pneumocystis carinii; 50 mg/kg/day oral) of the same compound?
A: 0

Q: And the “% INFECTED” value (Pneumocystis carinii; 100 mg/kg/day oral)?
A: 73%

Q: And the “NO. INFECTED/NO. EXAMINED” value (Pneumocystis carinii; 100 mg/kg/day oral)?
A: 11/15

Q: What about the “SCORE 1 (number of rats)” value (Pneumocystis carinii; 100 mg/kg/day oral) of the same compound?
A: 6

Q: And the “SCORE 2 (number of rats)” value (Pneumocystis carinii; 100 mg/kg/day oral)?
A: 4

Q: What about the “SCORE 3 (number of rats)” value (Pneumocystis carinii; 100 mg/kg/day oral) of the same compound?
A: 1

Q: What about the “SCORE 4 (number of rats)” value (Pneumocystis carinii; 100 mg/kg/day oral) of the same compound?
A: 0

Q: What about the “SCORE 0 (number of rats)” value (Pneumocystis carinii; 100 mg/kg/day oral) of the same compound?
A: 4

Q: And the “SCORE 1 (number of rats)” value (Pneumocystis carinii; oral)?
A: 5

Q: What does the source list for `CC(C)(C)C1CCC(CC2=C(O)C(=O)c3ccccc3C2=O)CC1` (stereo not shown) [C, 2-(4-t-butylcyclohexylmethyl)-3-hydroxy-1,4-naphthoquinone]?
A: % INFECTED (Pneumocystis carinii; 25 mg/kg/day oral): 93%; NO. INFECTED/NO. EXAMINED (Pneumocystis carinii; 25 mg/kg/day oral): 13/14; SCORE 2 (number of rats) (Pneumocystis carinii; 25 mg/kg/day oral): 2; SCORE 3 (number of rats) (Pneumocystis carinii; 25 mg/kg/day oral): 4; SCORE 4 (number of rats) (Pneumocystis carinii; 25 mg/kg/day oral): 4; SCORE 0 (number of rats) (Pneumocystis carinii; 25 mg/kg/day oral): 1; % INFECTED (Pneumocystis carinii; 50 mg/kg/day oral): 100%; NO. INFECTED/NO. EXAMINED (Pneumocystis carinii; 50 mg/kg/day oral): 14/14; SCORE 1 (number of rats) (Pneumocystis carinii; 50 mg/kg/day oral): 2; SCORE 2 (number of rats) (Pneumocystis carinii; 50 mg/kg/day oral): 6; SCORE 3 (number of rats) (Pneumocystis carinii; 50 mg/kg/day oral): 4; SCORE 4 (number of rats) (Pneumocystis carinii; 50 mg/kg/day oral): 2; SCORE 0 (number of rats) (Pneumocystis carinii; 50 mg/kg/day oral): 0; % INFECTED (Pneumocystis carinii; 100 mg/kg/day oral): 92%; NO. INFECTED/NO. EXAMINED (Pneumocystis carinii; 100 mg/kg/day oral): 12/13; SCORE 1 (number of rats) (Pneumocystis carinii; 100 mg/kg/day oral): 4; SCORE 2 (number of rats) (Pneumocystis carinii; 100 mg/kg/day oral): 2; SCORE 3 (number of rats) (Pneumocystis carinii; 100 mg/kg/day oral): 6; SCORE 4 (number of rats) (Pneumocystis carinii; 100 mg/kg/day oral): 0; SCORE 0 (number of rats) (Pneumocystis carinii; 100 mg/kg/day oral): 1; SCORE 1 (number of rats) (Pneumocystis carinii; oral): 3

Q: With `N=C(N)c1ccc(OCCCCCOc2ccc(C(=N)N)cc2)cc1` [pentamidine] as the compound, how does the “% effective” value [1] read?
A: 50-70%

Q: What about the “incidence of adverse reactions” value [2] of the same compound?
A: around 50%

Q: Which water-solubility (Water-solubility) does the source give for `CC(=O)OC1=C([C@H]2CC[C@H](c3ccc(Cl)cc3)CC2)C(=O)c2ccccc2C1=O` [Example 5, 2-Acetoxy-3-[trans-4-(4-chlorophenyl)cyclohexyl]-1,4-naphthoquinone] here?
A: improved water-solubility

Q: With trimethoprim-sulphamethoxazole as the compound, how does the “% effective” value [1] read?
A: 50-70%
